Results reported in patent US11591365B2, “BCL9 peptides and variants thereof” (WntRx Pharmaceuticals Inc., priority 2017, dated 2023).
*1 amine or outer side, *2 acyl side, *3 side chain or, on linkers, in order; H or OH if unused. Where a SMILES comes first, the peptide text is derived from it. Bridges are numbered along the chain shown (N, C = ends). [ ]: non-standard residue; d: D form. Azetidine3carboxylic = O=C(C1CN([*:1])C1)[*:2]; 2Nal = N[C@@H](Cc1ccc2ccccc2c1)C(=O)O; d2Nal = N[C@H](Cc1ccc2ccccc2c1)C(=O)O; NMeCha = CN[C@@H](CC1CCCCC1)C(=O)O; NMeR = CN[C@@H](CCCNC(=N)N)C(=O)O; hArg = N=C(N)NCCCC[C@H](N)C(=O)O; tBuAla = CC(C)(C)C[C@H](N)C(=O)O; NMeQ = CN[C@@H](CCC(N)=O)C(=O)O; Cha = N[C@@H](CC1CCCCC1)C(=O)O; dCha = N[C@H](CC1CCCCC1)C(=O)O; Tle = CC(C)(C)[C@H](N)C(=O)O; S5 = C=CCCC[C@](C)(N)C(=O)O

Tested on: Colo320DM
Assay: Colo320DM cell viability
Format: cell-based, human
Excerpt: In some embodiments, a polypeptide described herein inhibits binding of BLC9 to β-catenin when assessed in a cell-viability assay. In some embodiments, the cell-viability assay is a CellTiterGlo luminescent assay, wherein the viability of cells is quantitatively measured. Various cell lines, transformed cell lines or primary cells derived from a healthy subject or subject suffering from a disease can be used in this assay.

| SMILES | IC50 |
| --- | --- |
| CC[C@H](C)[C@@H]1NC(=O)[C@@](C)(NC(=O)[C@H](CCCNC(=N)N)NC(=O)[C@H](CC(C)C)NC(=O)[C@@H](NC(=O)[C@H](CCC(N)=O)NC(=O)[C@H](CC(C)C)NC(=O)[C@H](CO)NC(=O)[C@H](CCCNC(=N)N)NC(=O)[C@H](CCC(N)=O)NC(=O)[C@H](CCCCNC(=N)N)NC(=O)[C@H](Cc2c[nH]cn2)NC(C)=O)[C@@H](C)O)CCCC=CCCC[C@@](C)(C(=O)N[C@@H](CC2CCCCC2)C(=O)N[C@@H](Cc2ccc3ccccc3c2)C(N)=O)NC(=O)[C@H](CCCNC(=N)N)NC(=O)[C@H](CCC(N)=O)NC1=O [SEQ ID NO: 183, H(homoArg)QRSLQTLRXIQRX(Cha)(2-Nal)] (Ac-H[hArg]QRSLQTLR[S5]IQR[S5][Cha][2Nal]-NH2; staple 11-15) | 2530 nM |
| CC[C@H](C)[C@@H]1NC(=O)[C@@](C)(NC(=O)[C@H](CCCNC(=N)N)NC(=O)[C@H](CC(C)C)NC(=O)[C@@H](NC(=O)[C@H](CCC(N)=O)NC(=O)[C@H](CC(C)C)NC(=O)[C@H](CO)NC(=O)[C@H](CCCNC(=N)N)N(C)C(=O)[C@H](CCC(N)=O)NC(=O)[C@H](CCCNC(=N)N)NC(=O)[C@H](Cc2c[nH]cn2)NC(C)=O)[C@@H](C)O)CCCC=CCCC[C@@](C)(C(=O)N[C@@H](CC2CCCCC2)C(=O)N[C@@H](Cc2ccc3ccccc3c2)C(N)=O)NC(=O)[C@H](CCCNC(=N)N)NC(=O)[C@H](CCC(N)=O)NC1=O [SEQ ID NO: 184, HRQ(N-MeArg)SLQTLRXIQRX(Cha)(2-Nal)] (Ac-HRQ[NMeR]SLQTLR[S5]IQR[S5][Cha][2Nal]-NH2; staple 11-15) | 2430 nM |
| CC[C@H](C)[C@@H]1NC(=O)[C@@](C)(NC(=O)[C@H](CCCNC(=N)N)NC(=O)[C@H](CC(C)C)NC(=O)[C@@H](NC(=O)[C@H](CCC(N)=O)N(C)C(=O)[C@H](CC2CCCCC2)NC(=O)[C@H](CO)NC(=O)[C@H](CCCNC(=N)N)NC(=O)[C@H](CCC(N)=O)NC(=O)[C@H](CCCNC(=N)N)NC(=O)[C@H](Cc2c[nH]cn2)NC(C)=O)[C@@H](C)O)CCCC=CCCC[C@@](C)(C(=O)N[C@@H](CC2CCCCC2)C(=O)N[C@@H](Cc2ccc3ccccc3c2)C(N)=O)NC(=O)[C@H](CCCNC(=N)N)NC(=O)[C@H](CCC(N)=O)NC1=O [SEQ ID NO: 185, HRQRS(Cha)(N-MeGln)TLRXIQRX(Cha)(2-Nal)] (Ac-HRQRS[Cha][NMeQ]TLR[S5]IQR[S5][Cha][2Nal]-NH2; staple 11-15) | 1900 nM |
| CC[C@H](C)[C@@H]1NC(=O)[C@@](C)(NC(=O)[C@H](CCCNC(=N)N)NC(=O)[C@H](CC(C)C)NC(=O)[C@@H](NC(=O)[C@H](CCC(N)=O)N(C)C(=O)[C@@H](CC2CCCCC2)NC(=O)[C@H](CO)NC(=O)[C@H](CCCNC(=N)N)NC(=O)[C@H](CCC(N)=O)NC(=O)[C@H](CCCNC(=N)N)NC(=O)[C@H](Cc2c[nH]cn2)NC(C)=O)[C@@H](C)O)CCCC=CCCC[C@@](C)(C(=O)N[C@@H](CC2CCCCC2)C(=O)N[C@@H](Cc2ccc3ccccc3c2)C(N)=O)NC(=O)[C@H](CCCNC(=N)N)NC(=O)[C@H](CCC(N)=O)NC1=O [SEQ ID NO: 187, HRQRSD(Cha)(N-MeGln)TLRXIQRX(Cha)(2-Nal)] (Ac-HRQRS[dCha][NMeQ]TLR[S5]IQR[S5][Cha][2Nal]-NH2; staple 11-15; N-terminus and C-terminus assumed) | 2180 nM |
| CC[C@H](C)[C@@H]1NC(=O)[C@@](C)(NC(=O)[C@H](CCCNC(=N)N)NC(=O)[C@H](CC(C)C)NC(=O)[C@@H](NC(=O)[C@H](CCC(N)=O)NC(=O)[C@H](CC(C)C)NC(=O)[C@H](CO)NC(=O)[C@H](CCCNC(=N)N)NC(=O)[C@H](CCC(N)=O)NC(=O)[C@H](CCCNC(=N)N)NC(=O)[C@H](Cc2c[nH]cn2)NC(C)=O)[C@@H](C)O)CCCC=CCCC[C@@](C)(C(=O)N[C@@H](CC2CCCCC2)C(=O)N[C@@H](Cc2ccc3ccccc3c2)C(N)=O)NC(=O)[C@H](CCCNC(=N)N)N(C)C(=O)[C@H](CCC(N)=O)NC1=O [SEQ ID NO: 190, HRQRSLQTLRXIQ(N-MeArg)X(Cha)(2-Nal)] (Ac-HRQRSLQTLR[S5]IQ[NMeR][S5][Cha][2Nal]-NH2; staple 11-15) | 5890 nM |
| CC[C@H](C)[C@@H]1NC(=O)[C@@](C)(NC(=O)[C@H](CCCNC(=N)N)NC(=O)[C@H](CC(C)C)NC(=O)[C@@H](NC(=O)[C@H](CCC(N)=O)NC(=O)[C@H](CC(C)C)NC(=O)[C@H](CO)NC(=O)[C@H](CCCNC(=N)N)NC(=O)[C@H](CCC(N)=O)NC(=O)[C@H](CCCNC(=N)N)NC(=O)[C@H](Cc2c[nH]cn2)NC(C)=O)[C@@H](C)O)CCCC=CCCC[C@@](C)(C(=O)N[C@@H](CC(C)(C)C)C(=O)N[C@@H](Cc2ccc3ccccc3c2)C(N)=O)NC(=O)[C@H](CCCNC(=N)N)NC(=O)[C@H](CCC(N)=O)NC1=O [SEQ ID NO: 191, HRQRSLQTLRXIQRX(β-tBu-Ala)(2-Nal)] (Ac-HRQRSLQTLR[S5]IQR[S5][tBuAla][2Nal]-NH2; staple 11-15) | 2870 nM |

The remaining lines, values ahead:

| IC50 | SMILES |
| --- | --- |
| > 5000 nM | CC[C@H](C)[C@@H]1NC(=O)[C@@](C)(NC(=O)[C@H](CCCNC(=N)N)NC(=O)[C@H](CC(C)C)NC(=O)[C@@H](NC(=O)[C@H](CCC(N)=O)NC(=O)[C@H](CC(C)C)NC(=O)[C@H](CO)NC(=O)[C@H](CCCNC(=N)N)NC(=O)[C@H](CCC(N)=O)NC(=O)[C@H](CCCNC(=N)N)NC(=O)[C@H](Cc2c[nH]cn2)NC(C)=O)[C@@H](C)O)CCCC=CCCC[C@@](C)(C(=O)N2CC(C(=O)N[C@@H](Cc3ccc4ccccc4c3)C(N)=O)C2)NC(=O)[C@H](CCCNC(=N)N)NC(=O)[C@H](CCC(N)=O)NC1=O [SEQ ID NO: 178, HRQRSLQTLRXIQRX(Aze)(2-Nal)] (Ac-HRQRSLQTLR[S5]IQR[S5][Azetidine3carboxylic][2Nal]-NH2; staple 11-15) |
| 2230 nM | CC[C@H](C)[C@@H]1NC(=O)[C@@](C)(NC(=O)[C@H](CCCNC(=N)N)NC(=O)[C@H](CC(C)C)NC(=O)[C@@H](NC(=O)[C@H](CCC(N)=O)N(C)C(=O)[C@H](CC2CCCCC2)N(C)C(=O)[C@H](CO)NC(=O)[C@H](CCCNC(=N)N)NC(=O)[C@H](CCC(N)=O)NC(=O)[C@H](CCCNC(=N)N)NC(=O)[C@H](Cc2c[nH]cn2)NC(C)=O)[C@@H](C)O)CCCC=CCCC[C@@](C)(C(=O)N[C@@H](CC2CCCCC2)C(=O)N[C@@H](Cc2ccc3ccccc3c2)C(N)=O)NC(=O)[C@H](CCCNC(=N)N)NC(=O)[C@H](CCC(N)=O)NC1=O [SEQ ID NO: 186, HRQRS(N-MeCha)(N-MeGln)TLRXIQRX(Cha)(2-Nal)] (Ac-HRQRS[NMeCha][NMeQ]TLR[S5]IQR[S5][Cha][2Nal]-NH2; staple 11-15) |
| 3280 nM | CC[C@H](C)[C@@H]1NC(=O)[C@@](C)(NC(=O)[C@H](CCCNC(=N)N)NC(=O)[C@H](CC(C)C)NC(=O)[C@@H](NC(=O)[C@H](CCC(N)=O)NC(=O)[C@H](CC(C)C)NC(=O)[C@H](CO)NC(=O)[C@H](CCCNC(=N)N)NC(=O)[C@H](CCC(N)=O)NC(=O)[C@H](CCCNC(=N)N)NC(=O)[C@H](Cc2c[nH]cn2)NC(C)=O)[C@@H](C)O)CCCC=CCCC[C@@](C)(C(=O)N[C@@H](CC2CCCCC2)C(=O)N[C@H](Cc2ccc3ccccc3c2)C(N)=O)NC(=O)[C@H](CCCNC(=N)N)NC(=O)[C@H](CCC(N)=O)NC1=O [SEQ ID NO: 188, HRQRSLQTLRXIQRX(Cha)(2DNal)] (Ac-HRQRSLQTLR[S5]IQR[S5][Cha][d2Nal]-NH2; staple 11-15) |
| 3250 nM | CC[C@H](C)[C@@H]1NC(=O)[C@@](C)(NC(=O)[C@H](CCCNC(=N)N)N(C)C(=O)[C@H](CC(C)C)NC(=O)[C@@H](NC(=O)[C@H](CCC(N)=O)NC(=O)[C@H](CC(C)C)NC(=O)[C@H](CO)NC(=O)[C@H](CCCNC(=N)N)NC(=O)[C@H](CCC(N)=O)NC(=O)[C@H](CCCNC(=N)N)NC(=O)[C@H](Cc2c[nH]cn2)NC(C)=O)[C@@H](C)O)CCCC=CCCC[C@@](C)(C(=O)N[C@@H](CC2CCCCC2)C(=O)N[C@@H](Cc2ccc3ccccc3c2)C(N)=O)NC(=O)[C@H](CCCNC(=N)N)NC(=O)[C@H](CCC(N)=O)NC1=O [SEQ ID NO: 189, HRQRSLQTL(N-MeArg)XIQRX(Cha)(2-Nal)] (Ac-HRQRSLQTL[NMeR][S5]IQR[S5][Cha][2Nal]-NH2; staple 11-15) |
| 2590 nM | CC[C@H](C)[C@@H]1NC(=O)[C@@](C)(NC(=O)[C@H](CCCNC(=N)N)NC(=O)[C@H](CC(C)C)NC(=O)[C@@H](NC(=O)[C@H](CCC(N)=O)NC(=O)[C@H](CC(C)C)NC(=O)[C@H](CO)NC(=O)[C@H](CCCNC(=N)N)NC(=O)[C@H](CCC(N)=O)NC(=O)[C@H](CCCNC(=N)N)NC(=O)[C@H](Cc2c[nH]cn2)NC(C)=O)[C@@H](C)O)CCCC=CCCC[C@@](C)(C(=O)N[C@H](C(=O)N[C@@H](Cc2ccc3ccccc3c2)C(N)=O)C(C)(C)C)NC(=O)[C@H](CCCNC(=N)N)NC(=O)[C@H](CCC(N)=O)NC1=O [SEQ ID NO: 192, HRQRSLQTLRXIQRX(Tle)(2-Nal)] (Ac-HRQRSLQTLR[S5]IQR[S5][Tle][2Nal]-NH2; staple 11-15) |
| 2670 nM | CC[C@H](C)[C@@H]1NC(=O)[C@@](C)(NC(=O)[C@H](CCCNC(=N)N)NC(=O)[C@H](CC(C)C)NC(=O)[C@@H](NC(=O)[C@H](CCC(N)=O)NC(=O)[C@H](CC(C)C)NC(=O)[C@H](CO)NC(=O)[C@H](CCCNC(=N)N)NC(=O)[C@H](CCC(N)=O)N(C)C(=O)[C@H](CCCNC(=N)N)NC(=O)[C@H](Cc2c[nH]cn2)NC(C)=O)[C@@H](C)O)CCCC=CCCC[C@@](C)(C(=O)N[C@@H](CC(C)(C)C)C(=O)N[C@@H](Cc2ccc3ccccc3c2)C(N)=O)NC(=O)[C@H](CCCNC(=N)N)NC(=O)[C@H](CCC(N)=O)NC1=O [SEQ ID NO: 193, HR(N-MeGln)RSLQTLRXIQRX(β-tBu-Ala)(2-Nal)] (Ac-HR[NMeQ]RSLQTLR[S5]IQR[S5][tBuAla][2Nal]-NH2; staple 11-15) |
| 3750 nM | CC[C@H](C)[C@@H]1NC(=O)[C@@](C)(NC(=O)[C@H](CCCNC(=N)N)NC(=O)[C@H](CC(C)C)NC(=O)[C@@H](NC(=O)[C@H](CCC(N)=O)NC(=O)[C@H](CC(C)C)NC(=O)[C@H](CO)NC(=O)[C@H](CCCNC(=N)N)NC(=O)[C@H](CCC(N)=O)N(C)C(=O)[C@H](CCCNC(=N)N)NC(=O)[C@H](Cc2c[nH]cn2)NC(C)=O)[C@@H](C)O)CCCC=CCCC[C@@](C)(C(=O)N[C@H](C(=O)N[C@@H](Cc2ccc3ccccc3c2)C(N)=O)C(C)(C)C)NC(=O)[C@H](CCCNC(=N)N)NC(=O)[C@H](CCC(N)=O)NC1=O [SEQ ID NO: 194, HR(N-MeGln)RSLQTLRXIQRX(Tle)(2-Nal)] (Ac-HR[NMeQ]RSLQTLR[S5]IQR[S5][Tle][2Nal]-NH2; staple 11-15) |
